Laboratory results taken from patent US5607926A, “Cephalosporin antibiotics” (Microcide Pharmaceuticals, Inc., priority 1995, dated 1997).
Values after ≈ are worked out from the molar mass of the structure shown. Like-named read-outs stand apart in the source and are kept apart here.

Experiments:
Type in all cases: cell-based
[1] = system: S. aureus 76 (Meth^R)(lac^+); assay: In vitro antibacterial evaluation, MIC by agar dilution, S. aureus 76; settings: Staphylococcus aureus, read-out: MIC
Outline: (§1)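 Growth inhibition on Mueller-Hinton agar plates defined the MIC, the lowest compound level stopping visible growth after 16-20 hours at 35°-36° C. Compound was incorporated at two-fold steps from 128 μg/mL to ≤0.25 μg/mL, each tested twice, with about 10^4 cfu spotted per isolate.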

E. faecium ATCC 35667 = assay: In vitro antibacterial evaluation, MIC by agar dilution, E. faecium ATCC 35667; settings: Enterococcus faecium, ATCC35667, read-out: MIC
Outline: as §1

P. aeruginosa ATCC 27853 = assay: In vitro antibacterial evaluation, MIC by agar dilution, P. aeruginosa ATCC 27853; settings: Pseudomonas aeruginosa, ATCC27853, read-out: MIC
Outline: as §1

S. aureus ATCC 25923 = assay: In vitro antibacterial evaluation, MIC by agar dilution, S. aureus ATCC 25923; settings: Staphylococcus aureus, ATCC25923
Procedure: (§2) The compounds of the invention were evaluated against several β-lactamresistant bacteria strains by determining the minimum inhibitory concentration (MIC, μg/ml) of each compound with respect to each strain. The MIC, the lowest concentration of antibiotic which inhibits growth of the test organism, was determined by the agar dilution method.
(§3) To determine the MIC for bacterial isolates, the test compound was incorporated in a series of two-fold dilutions into liquified Mueller-Hinton agar. Upon solidification, a number of different bacterial strains were spot inoculated with a replicating device onto the agar surface. […] The procedures used in these studies have been standardized by the National Committee for Clinical Laboratory Standards (NCCLS), as per the NCCLS publication entitled METHODS FOR DILUTION ANTIMICROBIAL SUSCEPTIBILITY TESTS (1991), which is incorporated herein by reference.
(§4) Aliquots of antimicrobial agents were prepared in phosphate buffered saline (PBS) at pH 7.2. Tween 20 or DMSO was used as a solubilizing vehicle as needed. Standard methods of vortexing, sonicating and gentle heat were used to facilitate solubilizing the test agent. Typically, the concentration of the stock solution was 10× that of the highest drug concentration tested. A 1.28 mg/mL stock solution was used with a subsequent highest working concentration of 128 μg/mL. Serial two-fold dilutions were done through ≤0.25 μg/mL. Each drug level was tested in duplicate. Two-fold drug dilutions were done in sterile 50 mL tubes with a final drug volume of 5 mL. Upon the addition of 45 mL of molten agar, a 10-fold dilution resulted. Two, 25 mL. plates were then poured into 15×150 mm square Petri plates with grids and allowed to harden.
(§5) A control plate with a reference drug, either cefotaxime, vancomycin or imipenem, was used as the positive growth control. Stock concentrations of reference antibiotics were prepared and frozen at -80° C. Upon preparation, the control plates were sealed and stored in the refrigerator for up to 1 week prior to use; however, imipenem control plates had to be prepared just prior to use. All test plates were used within 24 hours of preparation.
(§6) Satisfactory results were obtained where the inoculum contained about 10^4 colony forming units (cfu) ±0.5 logs. Starting with pure cultures of the test isolates on agar plates, a few isolated colonies were transferred to a tube of nutrient broth and allowed to grow 4-6 hours at 35°-36° C. to reach log-phase growth. Dropwise addition of the broth culture to PBS was done to match a 0.5 McFarland turbidity standard equal to 10^8 cfu/mL. This was further diluted ten-fold in PBS to reach a working inoculum concentration of 10^7 cfu/mL. When 1 μL of the working inoculum was applied to the agar surface a concentration of about 10^4 cfu per spot was obtained.
(§7) Disposable sterile 1 μL loops were used to inoculate test plates, with each isolate in a designated grid on the agar plate. An alternate method of inoculation involved the use of a replica plater, a device with 48 steel pins allowing the simultaneous inoculation of multiple isolates. After the spots had dried, the plates were incubated at 35°-36° C. for 16-20 hours. Endpoints were assessed as the minimum inhibitory concentration (MIC) of antimicrobial agent.

[2] = system: S. epidermidis ATCC 31432; assay: In vitro antibacterial evaluation, MIC by agar dilution, S. epidermidis ATCC 31432; settings: Staphylococcus epidermidis, ATCC31432
Procedure: as §2, §3, §4, §5, §6, §7

E. coli ATCC 25922 = assay: In vitro antibacterial evaluation, MIC by agar dilution, E. coli ATCC 25922; settings: Escherichia coli, ATCC25922, read-out: MIC
Outline: as §1

[3] = system: S. aureus Col8A (Meth^S)(lac^-); assay: In vitro antibacterial evaluation, MIC by agar dilution, S. aureus Col8A; settings: Staphylococcus aureus
Outline: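 Agar dilution per NCCLS (1991): two-fold dilutions from 128 μg/mL down to ≤0.25 μg/mL in Mueller-Hinton agar, each level in duplicate. Spots of about 10^4 cfu of log-phase culture; 16-20 h at 35°-36° C. MIC in μg/ml is the lowest concentration inhibiting growth.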

E. faecalis ATCC 29212 = assay: In vitro antibacterial evaluation, MIC by agar dilution, E. faecalis ATCC 29212; settings: Enterococcus faecalis, ATCC29212; E. faecalis ATCC 29212; read-out: MIC
Procedure: as §2, §3, §4, §5, §6, §7

S. haemolyticus (Meth^R) = assay: In vitro antibacterial evaluation, MIC by agar dilution, S. haemolyticus; settings: Staphylococcus haemolyticus, read-out: MIC
Outline: as §1

[4] = S. aureus ATCC 25923, read-out: MIC
[5] = S. epidermidis ATCC 31432, read-out: MIC

Nc1nc(/C(=N/O)C(=O)N[C@@H]2C(=O)N3C(C(=O)O)=C(Sc4ccccc4-c4ccccc4)CS[C@H]23)cs1 [Cmpd 42, (7R)-7-[(Z)-2-(aminothiazol-4-yl)-2-(hydroxyimino)acetamido]-3-(2-biphenylthio)-3-cephem-4-carboxylic acid]
MIC [1]: 8 µg/mL (≈ 14.4 µM)
MIC (E. faecium ATCC 35667): 2 µg/mL (≈ 3.61 µM)
MIC (P. aeruginosa ATCC 27853): > 32 µg/mL
MIC (S. aureus ATCC 25923; [4]): < 0.25 µg/mL
MIC [2, 5]: < 0.25 µg/mL
MIC (E. coli ATCC 25922): 32 µg/mL (≈ 57.8 µM)
MIC [3]: 0.5 µg/mL (≈ 0.903 µM)
MIC (E. faecalis ATCC 29212): 2 µg/mL (≈ 3.61 µM)
MIC (S. haemolyticus (Meth^R)): 16 µg/mL (≈ 28.9 µM)

COc1ccc(Cc2ccc(-c3ccccc3SC3=C(C(=O)O)N4C(=O)[C@@H](NC(=O)Cc5ccccc5)[C@H]4SC3)s2)cc1 [Cmpd 43, (7R)-7-[(Phenylacetyl)amino]-3-(2-(2-(4-methoxy-phenylmethyl)thien-5-yl)phenylthio)-3-cephem-4-carboxylic acid]
MIC [1]: 8 µg/mL (≈ 12.7 µM)
MIC (E. faecium ATCC 35667): 4 µg/mL (≈ 6.36 µM)
MIC (P. aeruginosa ATCC 27853): > 32 µg/mL
MIC (S. aureus ATCC 25923): < 0.25 µg/mL
MIC [2]: < 0.25 µg/mL
MIC (E. coli ATCC 25922): > 32 µg/mL
MIC [3]: < 0.25 µg/mL
MIC (E. faecalis ATCC 29212): 4 µg/mL (≈ 6.36 µM)
MIC (S. haemolyticus (Meth^R)): 16 µg/mL (≈ 25.4 µM)

CSc1ccccc1SC1=C(C(=O)O)N2C(=O)[C@@H](NC(=O)Cc3ccccc3)[C@H]2SC1 [Cmpd 44, (7R)-7-[(Phenylacetyl)amino]-3-(2-methylthiophenylthio)-3-cephem-4-carboxylic acid]
MIC [1]: 4 to 8 µg/mL (≈ 8.46 to 16.9 µM)
MIC (E. faecium ATCC 35667): 4 µg/mL (≈ 8.46 µM)
MIC (P. aeruginosa ATCC 27853): > 32 µg/mL
MIC (S. aureus ATCC 25923): < 0.25 µg/mL
MIC [2]: < 0.25 µg/mL
MIC (E. coli ATCC 25922): > 32 µg/mL
MIC [3]: < 0.25 µg/mL
MIC (E. faecalis ATCC 29212): 4 µg/mL (≈ 8.46 µM)
MIC (S. haemolyticus (Meth^R)): 8 µg/mL (≈ 16.9 µM)

Cn1cc[n+](Cc2ccc(-c3ccccc3SC3=C(C(=O)[O-])N4C(=O)[C@@H](NC(=O)Cc5ccccc5)[C@H]4SC3)s2)c1 [Cmpd 45, (7R)-7-[(Phenylacetyl)amino]-3-(2-(2-(N-methylimidazoliummethyl)thien-5-yl)phenylthio)-3-cephem-4-carboxylic acid]
MIC [1]: 16 µg/mL (≈ 26.5 µM)
MIC (E. faecium ATCC 35667): 4 µg/mL (≈ 6.64 µM)
MIC (P. aeruginosa ATCC 27853): > 32 µg/mL
MIC (S. aureus ATCC 25923; [4]): < 0.25 µg/mL
MIC [2, 5]: < 0.25 µg/mL
MIC (E. coli ATCC 25922): > 32 µg/mL
MIC [3]: 0.5 µg/mL (≈ 0.83 µM)
MIC (E. faecalis ATCC 29212): 4 µg/mL (≈ 6.64 µM)
MIC (S. haemolyticus (Meth^R)): 32 µg/mL (≈ 53.1 µM)

CC(C)(C)c1ccccc1SC1=C(C(=O)O)N2C(=O)[C@@H](NC(=O)Cc3ccccc3)[C@H]2SC1 [Cmpd 46, (7R)-7-[(Phenylacetyl)amino]-3-(2-tert-butylphenylthio)-3-cephem-4-carboxylic acid]
MIC [1]: 8 µg/mL (≈ 16.6 µM)
MIC (E. faecium ATCC 35667): 2 µg/mL (≈ 4.14 µM)
MIC (P. aeruginosa ATCC 27853): > 32 µg/mL
MIC (S. aureus ATCC 25923): < 0.25 µg/mL
MIC [2]: < 0.25 µg/mL
MIC (E. coli ATCC 25922): > 32 µg/mL
MIC [3]: < 0.25 µg/mL
MIC (E. faecalis ATCC 29212): 2 µg/mL (≈ 4.14 µM)
MIC (S. haemolyticus (Meth^R)): 16 µg/mL (≈ 33.2 µM)

CC(C)Oc1ccccc1SC1=C(C(=O)O)N2C(=O)[C@@H](NC(=O)Cc3ccccc3)[C@H]2SC1 [Cmpd 47, (7R)-7-[(Phenylacetyl)amino]-3-(2-iso-propyloxyphenylthio)-3-cephem-4-carboxylic acid]
MIC [1]: 8 µg/mL (≈ 16.5 µM)
MIC (E. faecium ATCC 35667): 2 µg/mL (≈ 4.13 µM)
MIC (P. aeruginosa ATCC 27853): > 32 µg/mL
MIC (S. aureus ATCC 25923): < 0.25 µg/mL
MIC [2]: < 0.25 µg/mL
MIC (E. coli ATCC 25922): > 32 µg/mL
MIC [3]: < 0.25 µg/mL
MIC (E. faecalis ATCC 29212): 4 µg/mL (≈ 8.25 µM)
MIC (S. haemolyticus (Meth^R)): 16 µg/mL (≈ 33 µM)

Cn1cc[n+](Cc2ccoc2-c2ccccc2SC2=C(C(=O)[O-])N3C(=O)[C@@H](NC(=O)Cc4ccccc4)[C@H]3SC2)c1 [Cmpd 48, (7R)-7-[(Phenylacetyl)amino]-3-(2-(3-(N-methylimidazoliummethyl)furan-2-yl)phenylthio)-3-cephem-4-carboxylic acid]
MIC [1]: 16 µg/mL (≈ 27.3 µM)
MIC (E. faecium ATCC 35667): 4 µg/mL (≈ 6.82 µM)
MIC (P. aeruginosa ATCC 27853): > 32 µg/mL
MIC (S. aureus ATCC 25923; [4]): < 0.25 µg/mL
MIC [2, 5]: < 0.25 µg/mL
MIC (E. coli ATCC 25922): > 32 µg/mL
MIC [3]: 0.5 µg/mL (≈ 0.852 µM)
MIC (E. faecalis ATCC 29212): 4 µg/mL (≈ 6.82 µM)
MIC (S. haemolyticus (Meth^R)): 16 µg/mL (≈ 27.3 µM)
